Laboratory results as given in patent US20240262909A1, “TIM-3 MODULATES ANTI-TUMOR IMMUNITY BY REGULATING INFLAMMASOME ACTIVATION” (THE BRIGHAM AND WOMEN'S HOSPITAL, INC., priority 2021, published 2024).

Columns and labels:
MC38-OVAdim tumor = MC38-OVAdim tumor growth and weight in Tim3fl.fl and Tim3fl.flZbtb46 cre mice with or without NAC; type: in vivo; settings: Tim3cko mice, NAC daily in drinking water 40 mM
From the text: (§1) To investigate the effect of oxidative stress in Tim3^cko tumor bearing animals the inventors implanted Tim3^fl.fl and Tim3^fl.flZbtb46 cre mice with MC38-OVAdim and treated with or without antioxidant N-Acetyl-Cysteine (NAC) for the duration of the experiment. […] To determine whether mitigation of oxidative stress in Tim3^cko tumors also affected IL-1β levels intratumorally, the inventors prepared tumor supernatants and determined the levels of IL-1β in WT and Tim3cko animals treated with or without NAC.
(§2) The C57BL/6-derived colon carcinoma MC38 and MC38-OVAdim were maintained at 37° C. with 5% CO2 in DMEM medium supplemented with 10% heat-inactivated fetal calf serum, penicillin, and streptomycin and 1% Sodium Pyruvate. The C57BL/6-derived melanoma cell lines-B16 and B16-OVA-transfected clone were maintained at 37° C. with 5% CO2 in RPMI medium supplemented with 10% heat-inactivated fetal calf serum, penicillin, and streptomycin. MC38- OVA^dim (0.5×10^6), B16F10/B16-OVA (0.25×10^6) and MC38 (1.0×10^6) cells were injected subcutaneously in 100 μl PBS on the flank. Tumor size was determined by the formula L×W where L=length, W=width on the indicated days. In some experiments, mice were treated with anti-IL-1β (B122) and anti-IL-18 (YIGIF74-1 G7) or appropriate control Hamster Ig and Rat IgG2a (all at 8 mg/kg) i.p. on days 3, 6, 9 post tumor implantation. […]

IL-1β = IL-1β levels in tumor supernatants of WT and Tim3cko animals with or without NAC; type: in vivo, mice; settings: Tim3cko tumors; NAC in drinking water 40 mM
From the text: as §1, §2

MC38-OVA tumor = MC38-OVA tumor growth and weight in Tim3fl.fl and Tim3fl.flxCD11c cre mice under inflammasome pathway inhibition; type: in vivo; settings: Tim-3cko mice, 8 mg/kg
From the text: FIGS. 4A-4W: Loss of Tim3 on DC promotes inflammasome activation. (FIG. 4A) Unidirectional analysis of the fraction of DCs expressing ligand X and the fraction of T cells expressing the cognate Receptor; Ligand (MigDC): Receptor (CD8) interaction from WT (left) and Tim3cko (right) tumors. (FIG. 4B) Bar plot of data from FIG. 4A. (FIG. 4C). ECDF plots showing enrichment of IL-18 signature and (FIG. 4D) IL-1 signature in WT and Tim3^ckoCD8+ TILs. (FIG. 4E) ECDF plot of enrichment score for inflammasome signature in WT or Tim3^cko migratory DC, (p=1.5*10^−03), (FIG. 4F) Dot plot of selected genes from inflammasome signature. (FIG. 4G) ECDF plot of enrichment score for Oxidative Stress signature, (FIG. 4H) Dot plot of selected genes from Oxidative Stress signature. (FIG. 4I) MC38-OVA (0.5×10^6 cells) were subcutaneously implanted into Tim3^fl.fl and Tim3^fl.flxCD11c cre mice and on D14 tumors mononuclear cells were isolated and incubated with DHR123 for 30 minutes followed by flow-cytometric analysis of activated DHR123 as a measure of ROS activity in tumor infiltrating DC. […]
The C57BL/6-derived colon carcinoma MC38 and MC38-OVAdim were maintained at 37° C. with 5% CO2 in DMEM medium supplemented with 10% heat-inactivated fetal calf serum, penicillin, and streptomycin and 1% Sodium Pyruvate. […] Tumor size was determined by the formula L×W where L=length, W=width on the indicated days. […]

Row | Structure (SMILES) | protective inhibition of tumor growth (tumor growth) (MC38-OVAdim tumor) | protective inhibition of tumor growth (tumor weights post-harvest) (MC38-OVAdim tumor) | elevated intratumoral IL-1β levels (tumor supernatants) (IL-1β) | protective anti-tumor immunity observed in the Tim-3cko (MC38-OVA tumor)
1 | CC(=O)N[C@@H](CS)C(=O)O [NAC, N-Acetyl-Cysteine] | completely abrogated | completely abrogated | completely reversed | –
2 | CC(C)(O)c1coc(S(=O)(=O)[N-]C(=O)Nc2c3c(cc4c2CCC4)CCC3)c1.[Na+] [CRID3] | – | – | – | abolished the protective anti-tumor immunity
